For 18 molecules, EC50 results are on record in patent publication US12415785B2, “Compound modulators of sting” (CTXT PTY LTD, priority 2019, dated 2025).

The target of experiment [1] is human HAQ isoform of STING (THP-1 STING Lucia ISG cells) (Homo sapiens (Human), UniProt Q86WV6, G230A/H232R/R293Q/R71H). The experiment can be described thus: THP-1 STING Lucia ISG reporter cell line assay. In kind it is cell-based. The settings on record: 24 h incubation, QUANTI-Luc luminescence. The method, then: (§1) THP-1 STING Lucia ISG cells (InvivoGen #thpI-isg) were cultured in RPMI-1640 containing 2 mM L-glutamine, 25 mM HEPES, 100 μg/mL Normocin (InvivoGen) and 10% heat-inactivated FBS. Cells were seeded at a density of 7×10^5 cells/mL, maintained at 37° C./5% CO2, and passaged every 3-4 days. Selection pressure was maintained by the addition of 100 μg/mL Zeocin every second passage.
(§2) Assay conditions: cells were harvested and resuspended at a concentration of 5×10^5 cells/mL in fresh growth media. Of this cell preparation 20 μL per well was dispensed into 384 well cell culture plates (Greiner, #781098X) and incubated at 37° C./5% CO2 for 2 hours. Concentration Response Curves (commonly 11 doses) were prepared by 2.5 fold serial dilution starting from 10 mM compound stock solution in DMSO. Compound dilutions were transferred into the cell culture plates using a pintool (0.1 μL transfer), control wells were matched for DMSO. Positive control wells received ML RR—S2 CDA (Med Chem Express HY12885B) in 5 μL of media to a final concentration of 40 μM. All other wells received additional 5 μL of media only to equalise volume. The plates were incubated for 24 h at 37° C./5% CO2.
(§3) For the detection step, QUANTI-Luc (InvivoGen #rep-qlc1) was prepared according to manufacturer's instruction and 10 μL were added per well to the culture plates. Plates were shaken for ten seconds on an orbital shaker and left in the dark at room temperature for two minutes, before luminescence was read on a Perkin Elmer Envision plate reader.
(§4) Data analysis: Luminescence raw data was normalised % activity relative to the signal of the positive control wells and negative control wells which were not treated with compound. The following formula was used to calculate normalised % activity from raw signals: % activity=(sample−negative)/(positive−negative)
(§5) The THP-1 STING Lucia ISG cell EC50 provides an assessment of activity at the human HAQ isoform of STING. For assessing compound activity against the WT human STING isoform, an equivalent method was conducted where the cells used were THP-1-Dual KI-hSTING-R232 (InvivoGen #thpd-r232).

Experiment [2] has as its target WT human STING isoform (THP-1-Dual KI-hSTING-R232 cells) (Homo sapiens (Human), UniProt Q86WV6, H232R). In words: THP-1-Dual KI-hSTING-R232 reporter cell line assay. The format is cell-based. The settings on record: 24 h incubation, QUANTI-Luc luminescence. On the procedure: as §1, §2, §3, §4, §5

The structures appear in SMILES notation.

Sequence of human HAQ isoform of STING (THP-1 STING Lucia ISG cells) (Q86WV6 whole entry R71H/G230A/H232R/R293Q, canonical isoform): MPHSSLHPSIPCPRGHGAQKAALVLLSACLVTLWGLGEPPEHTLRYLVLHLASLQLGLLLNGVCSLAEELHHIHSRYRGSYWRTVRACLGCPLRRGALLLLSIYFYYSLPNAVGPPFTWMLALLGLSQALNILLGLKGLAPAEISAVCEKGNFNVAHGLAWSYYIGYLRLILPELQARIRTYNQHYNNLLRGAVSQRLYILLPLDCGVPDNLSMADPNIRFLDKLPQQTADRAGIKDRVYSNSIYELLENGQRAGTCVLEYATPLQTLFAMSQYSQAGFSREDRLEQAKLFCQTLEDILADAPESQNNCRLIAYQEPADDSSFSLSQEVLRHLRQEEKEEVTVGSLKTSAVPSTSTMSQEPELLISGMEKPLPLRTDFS
Sequence of WT human STING isoform (THP-1-Dual KI-hSTING-R232 cells) (Q86WV6 whole entry H232R, canonical isoform): as the sequence (Q86WV6 whole entry R71H/G230A/H232R/R293Q, canonical isoform) above, with H71R, A230G, Q293R counted along it

In the case of `CCc1ccc(-c2nc3c(OC)c(C(N)=O)ccc3n2CCn2c(-c3ccc(CC)cc3C(=O)O)nc3c(OC)c(C(N)=O)ccc32)c(C(=O)O)c1` [Example 33, 6,6′-(Ethane-1,2-diylbis(5-carbamoyl-4-methoxy-1H-benzo[d]imidazole-1,2-diyl))bis(3-ethylbenzoic acid)], the concentration for a half-maximal effect (EC50) in experiment [1] and in experiment [2] was over 40000 nM each time.
As to `COc1c(C(N)=O)ccc2c1nc(-c1cccc(Br)c1C(=O)O)n2CCn1c(-c2cccc(Br)c2C(=O)O)nc2c(OC)c(C(N)=O)ccc21` [Example 36, 6,6′-(Ethane-1,2-diylbis(5-carbamoyl-4-methoxy-1H-benzo[d]imidazole-1,2-diyl))bis(2-bromobenzoic acid)], the EC50 in experiment [1] and in experiment [2] was over 40000 nM throughout.
For the molecule `COc1c(C(N)=O)ccc2c1nc(-c1c(F)cc(Cl)cc1-c1nn[nH]n1)n2CCn1c(-c2c(F)cc(Cl)cc2-c2nn[nH]n2)nc2c(OC)c(C(N)=O)ccc21` [Example 46, 1,1′-(Ethane-1,2-diyl)bis(2-(4-chloro-2-fluoro-6-(2H-tetrazol-5-yl)phenyl)-4-methoxy-1H-benzo[d]imidazole-5-carboxamide)], the EC50 (in general, the midpoint of the concentration-response curve) stood at 218 nM in experiment [1] and 195 nM in experiment [2].
Consider `COc1c(C(N)=O)ccc2c1nc(-c1ccc(Cl)cc1-c1n[nH]c(=O)o1)n2CCn1c(-c2ccc(Cl)cc2-c2n[nH]c(=O)o2)nc2c(OC)c(C(N)=O)ccc21` [Example 17, 1,1′-(Ethane-1,2-diyl)bis(2-(4-chloro-2-(5-oxo-4,5-dihydro-1,3,4-oxadiazol-2-yl)phenyl)-4-methoxy-1H-benzo[d]imidazole-5-carboxamide)], for which the figures for the 50% effective concentration (EC50) in experiment [1] and in experiment [2] were 290 nM and 360 nM, respectively.
As to `COc1c(C(N)=O)ccc2c1nc(-c1cc(F)c(F)cc1C(=O)O)n2CCn1c(-c2cc(F)c(F)cc2C(=O)O)nc2c(OC)c(C(N)=O)ccc21` [Example 15, 6,6′-(Ethane-1,2-diylbis(5-carbamoyl-4-methoxy-1H-benzo[d]imidazole-1,2-diyl))bis(3,4-difluorobenzoic acid)], the values for the half-maximal effective concentration (EC50) in experiment [1] and in experiment [2] were 2560 nM and 2460 nM, respectively.
Regarding `COc1c(C(N)=O)ccc2c1nc(-c1ccccc1-c1nn[nH]n1)n2CCn1c(-c2ccccc2-c2nn[nH]n2)nc2c(OC)c(C(N)=O)ccc21` [Example 6, 1,1′-(Ethane-1,2-diyl)bis(2-(2-(2H-tetrazol-5-yl)phenyl)-4-methoxy-1H-benzo[d]imidazole-5-carboxamide)], the values for the concentration giving a half-maximal response (EC50) in experiment [1] and in experiment [2] were 902 nM and 936 nM, respectively.
With `NC(=O)c1ccc2c(c1)nc(-c1c(Br)cccc1C(=O)O)n2CCn1c(-c2c(Br)cccc2C(=O)O)nc2cc(C(N)=O)ccc21` (single isomer, unassigned) [Example 29.1, 2,2′-(Ethane-1,2-diylbis(5-carbamoyl-1H-benzo[d]imidazole-1,2-diyl))bis(3-bromobenzoic acid)], the results for the EC50 in experiment [1] and in experiment [2] were 18400 nM and 9850 nM, respectively.
Take `COC(=O)c1c(Br)cccc1-c1nc2c(OC)c(C(N)=O)ccc2n1CCn1c(-c2cccc(Br)c2C(=O)OC)nc2c(OC)c(C(N)=O)ccc21` [Example 21, Dimethyl 6,6′-(ethane-1,2-diylbis(5-carbamoyl-4-methoxy-1H-benzo[d]imidazole-1,2-diyl))bis(2-bromobenzoate)]: the half-maximal effective concentration (EC50) is 1490 nM in experiment [1] and 1630 nM in experiment [2].
Take `COc1c(C(N)=O)ccc2c1nc(-c1c(I)cccc1C(=O)O)n2CCn1c(-c2c(I)cccc2C(=O)O)nc2c(OC)c(C(N)=O)ccc21` (single isomer, unassigned) [Example 19.1, 2,2′-(Ethane-1,2-diylbis(5-carbamoyl-4-methoxy-1H-benzo[d]imidazole-1,2-diyl))bis(3-iodobenzoic acid)]: the concentration for a half-maximal effect (EC50) in experiment [1] is 297 nM; in experiment [2], 232 nM.
In the case of `COc1c(C(N)=O)ccc2c1nc(-c1c(F)cccc1C(=O)O)n2CCn1c(-c2c(F)cccc2C(=O)O)nc2c(OC)c(C(N)=O)ccc21` [Example 10, 2,2′-(Ethane-1,2-diylbis(5-carbamoyl-4-methoxy-1H-benzo[d]imidazole-1,2-diyl))bis(3-fluorobenzoic acid)], the EC50 was 1590 nM in experiment [1] and 1390 nM in experiment [2].
The like results for `COc1c(C(N)=O)ccc2c1nc(-c1ccc(C)cc1C(=O)O)n2CCn1c(-c2ccc(C)cc2C(=O)O)nc2c(OC)c(C(N)=O)ccc21` [Example 25, 6,6′-(Ethane-1,2-diylbis(5-carbamoyl-4-methoxy-1H-benzo[d]imidazole-1,2-diyl))bis(3-methylbenzoic acid)] were, in that order, 2960 nM and 3200 nM.
Turning to `COc1c(C(N)=O)ccc2c1nc(-c1ccc(Cl)cc1C(=O)O)n2CCCn1c(-c2ccc(Cl)cc2C(=O)O)nc2c(OC)c(C(N)=O)ccc21` [Example 35, 6,6′-(Propane-1,3-diylbis(5-carbamoyl-4-methoxy-1H-benzo[d]imidazole-1,2-diyl))bis(3-chlorobenzoic acid)], the 50% effective concentration (EC50) in experiment [1] and in experiment [2] was over 40000 nM throughout.
Turning to `COc1c(C(N)=O)ccc2c1nc(-c1c(F)cc(Cl)cc1C(=O)O)n2CCn1c(-c2c(F)cc(Cl)cc2C(=O)O)nc2c(OC)c(C(N)=O)ccc21` [Example 11, 2,2′-(ethane-1,2-diylbis(5-carbamoyl-4-methoxy-1H-benzo[d]imidazole-1,2-diyl))bis(5-chloro-3-fluorobenzoic acid)], the EC50 in experiment [1] came out at 830 nM; in experiment [2], 683 nM.
The like results for `COc1c(C(N)=O)cc(F)c2c1nc(-c1ccc(Cl)cc1C(=O)O)n2CCn1c(-c2ccc(Cl)cc2C(=O)O)nc2c(OC)c(C(N)=O)cc(F)c21` [Example 20, 6,6′-(Ethane-1,2-diylbis(5-carbamoyl-7-fluoro-4-methoxy-1H-benzo[d]imidazole-1,2-diyl))bis(3-chlorobenzoic acid)] were, in that order, 1300 nM and 2780 nM.
The like results for `COc1c(C(N)=O)cc(F)c2c1nc(-c1c(F)cc(F)cc1C(=O)O)n2CCn1c(-c2c(F)cc(F)cc2C(=O)O)nc2c(OC)c(C(N)=O)cc(F)c21` [Example 18, 2,2′-(Ethane-1,2-diylbis(5-carbamoyl-7-fluoro-4-methoxy-1H-benzo[d]imidazole-1,2-diyl))bis(3,5-difluorobenzoic acid)] were, in that order, 326 nM and 566 nM.
Consider `COc1c(C(N)=O)ccc2c1nc(-c1ccc(Cl)cc1C(=O)O)n2CCn1c(-c2ccc(Cl)cc2C(=O)O)nc2c(OC)c(C(N)=O)ccc21` [Example 1, 6,6′-(Ethane-1,2-diylbis(5-carbamoyl-4-methoxy-1H-benzo[d]imidazole-1,2-diyl))bis(3-chlorobenzoic acid)], for which the half-maximal effective concentration (EC50) came out at 1070 nM in experiment [1] and 895 nM in experiment [2].
Consider `COc1c(C(N)=O)ccc2c1nc(-c1ccc(Cl)cc1C(=O)O)n2C/C=C/Cn1c(-c2ccc(Cl)cc2C(=O)O)nc2c(OC)c(C(N)=O)ccc21` [Example 34, (E)-6,6′-(But-2-ene-1,4-diylbis(5-carbamoyl-4-methoxy-1H-benzo[d]imidazole-1,2-diyl))bis(3-chlorobenzoic acid)], for which the EC50 in experiment [1] and in experiment [2] was over 40000 nM each time.
Regarding `COc1c(C(N)=O)ccc2c1nc(-c1ncc(Cl)cc1C(=O)O)n2CCn1c(-c2ncc(Cl)cc2C(=O)O)nc2c(OC)c(C(N)=O)ccc21` [Example 31, 2,2′-(Ethane-1,2-diylbis(5-carbamoyl-4-methoxy-1H-benzo[d]imidazole-1,2-diyl))bis(5-chloronicotinic acid)], the EC50 in experiment [1] and in experiment [2] was over 40000 nM each time.
